Source: ChEMBL document CHEMBL1201862, “PubChem BioAssay data set” (2004)
The source made the active and inactive calls.

Experiments:
[1] = target: Dual specificity tyrosine-phosphorylation-regulated kinase 1A (Rattus norvegicus, UniProt Q63470); assay type: biochemical, Homo sapiens
Escherichia coli = assay: microbe, parasite or virus in culture
HEK293 = assay: cells; assay type: functional, cell-based; conditions: Homo sapiens
[2] = target: T1, Nuclear receptor subfamily 0 group B member 1 (Homo sapiens, UniProt P51843); assay: Luminescence-based cell-based high throughput dose response assay for inhibitors of the orphan nuclear receptor subfamily 0, group B, member 1 (DAX1; NR0B1). [Related pubchem assays (depositor defined):AID504766, AID504790]; assay type: functional
T1 sequence (P51843 whole entry): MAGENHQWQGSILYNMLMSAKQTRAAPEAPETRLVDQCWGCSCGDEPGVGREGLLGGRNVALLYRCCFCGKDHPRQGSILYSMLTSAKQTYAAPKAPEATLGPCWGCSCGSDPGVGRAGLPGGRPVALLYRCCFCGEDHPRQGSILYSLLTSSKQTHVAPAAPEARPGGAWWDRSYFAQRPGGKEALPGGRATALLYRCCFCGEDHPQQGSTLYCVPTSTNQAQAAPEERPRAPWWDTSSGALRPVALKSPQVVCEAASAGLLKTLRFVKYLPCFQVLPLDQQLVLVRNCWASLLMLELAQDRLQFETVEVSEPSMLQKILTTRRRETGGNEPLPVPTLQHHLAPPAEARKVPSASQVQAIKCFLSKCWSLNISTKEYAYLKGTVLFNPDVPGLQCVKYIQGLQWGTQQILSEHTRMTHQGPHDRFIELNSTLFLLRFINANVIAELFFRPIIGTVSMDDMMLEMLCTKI

[3] = target: T2, Sentrin-specific protease 8 (Homo sapiens, UniProt Q96LD8); assay: inhibition of human SENP8 cleavage activity – biochemical, luminescence, SAR follow-up (AID 504501); assay type: functional
T2 sequence (Q96LD8 whole entry): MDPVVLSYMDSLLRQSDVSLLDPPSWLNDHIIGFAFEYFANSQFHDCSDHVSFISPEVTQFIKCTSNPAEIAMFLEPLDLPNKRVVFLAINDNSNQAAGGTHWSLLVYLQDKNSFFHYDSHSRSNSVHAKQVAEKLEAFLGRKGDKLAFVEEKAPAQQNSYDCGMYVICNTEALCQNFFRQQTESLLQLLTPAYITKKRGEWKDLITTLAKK

Caspase-3 [4] = target: T3, Caspase-3 (Homo sapiens, UniProt P42574); assay: inhibition of recombinant caspase-3 activity – biochemical, luminescence, set 2, selectivity assay for SENP protease inhibitor project, SAR follow-up (AID 588599); assay type: functional
T3 sequence (P42574 whole entry): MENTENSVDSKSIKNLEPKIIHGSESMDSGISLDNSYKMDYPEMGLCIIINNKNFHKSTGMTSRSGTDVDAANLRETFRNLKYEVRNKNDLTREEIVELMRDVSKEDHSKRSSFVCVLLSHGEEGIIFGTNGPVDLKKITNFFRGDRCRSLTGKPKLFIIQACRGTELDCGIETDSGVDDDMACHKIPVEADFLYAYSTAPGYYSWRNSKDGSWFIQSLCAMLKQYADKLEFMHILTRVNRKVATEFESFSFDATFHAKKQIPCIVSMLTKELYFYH

[5] = target: T2, Sentrin-specific protease 8; assay: inhibition of sentrin protease 8 – biochemical, luminescence, set 2, SAR follow-up (AID 588601); assay type: functional
Caspase-3 [6] = target: T3, Caspase-3; assay: SAR Analysis of small molecule inhibitors of Sentrin-specific proteases (SENPs) using a Caspase-3 Selectivity assay. [Related pubchem assays (depositor defined):AID2540, AID2599, AID434973, AID489001]; assay type: functional
[7] = target: T4, Sentrin-specific protease 7 (Homo sapiens, UniProt Q9BQF6); assay: inhibition of human SENP7 cleavage activity – biochemical, luminescence, set 2, SAR follow-up (AID 588600); assay type: functional
T4 sequence (Q9BQF6 whole entry): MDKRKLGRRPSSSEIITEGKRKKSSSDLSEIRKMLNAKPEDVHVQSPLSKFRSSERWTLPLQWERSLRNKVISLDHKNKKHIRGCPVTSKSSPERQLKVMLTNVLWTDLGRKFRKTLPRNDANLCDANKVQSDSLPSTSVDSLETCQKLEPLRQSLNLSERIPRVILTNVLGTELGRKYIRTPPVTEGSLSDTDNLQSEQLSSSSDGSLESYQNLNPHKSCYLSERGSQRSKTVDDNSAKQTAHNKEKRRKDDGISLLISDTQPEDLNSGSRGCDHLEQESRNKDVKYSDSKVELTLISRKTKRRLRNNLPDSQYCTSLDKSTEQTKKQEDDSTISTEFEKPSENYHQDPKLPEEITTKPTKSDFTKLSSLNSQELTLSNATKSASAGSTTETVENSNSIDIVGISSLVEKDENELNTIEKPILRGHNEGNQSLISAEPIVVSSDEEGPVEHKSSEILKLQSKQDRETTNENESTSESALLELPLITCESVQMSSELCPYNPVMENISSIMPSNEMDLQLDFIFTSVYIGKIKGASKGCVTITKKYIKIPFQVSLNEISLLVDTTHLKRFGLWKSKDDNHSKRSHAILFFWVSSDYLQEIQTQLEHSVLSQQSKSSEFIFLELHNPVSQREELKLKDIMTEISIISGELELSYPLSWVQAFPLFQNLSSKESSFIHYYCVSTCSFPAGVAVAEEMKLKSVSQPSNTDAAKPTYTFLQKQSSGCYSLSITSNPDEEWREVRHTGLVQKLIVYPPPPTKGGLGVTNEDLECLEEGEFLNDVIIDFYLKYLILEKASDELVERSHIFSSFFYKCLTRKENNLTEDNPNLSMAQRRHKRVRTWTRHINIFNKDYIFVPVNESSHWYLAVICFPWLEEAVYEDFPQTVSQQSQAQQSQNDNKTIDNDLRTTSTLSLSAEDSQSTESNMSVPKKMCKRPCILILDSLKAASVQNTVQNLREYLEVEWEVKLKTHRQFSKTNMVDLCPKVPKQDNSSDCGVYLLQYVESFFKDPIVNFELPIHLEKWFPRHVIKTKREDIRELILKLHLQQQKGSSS

[8] = target: T5, Sentrin-specific protease 6 (Homo sapiens, UniProt Q9GZR1); assay: SAR Analysis of small molecule inhibitors of Sentrin-specific protease 6 (SENP6) using a Luminescent assay. [Related pubchem assays (depositor defined):AID2582, AID2599]; assay type: functional
T5 sequence (Q9GZR1 whole entry): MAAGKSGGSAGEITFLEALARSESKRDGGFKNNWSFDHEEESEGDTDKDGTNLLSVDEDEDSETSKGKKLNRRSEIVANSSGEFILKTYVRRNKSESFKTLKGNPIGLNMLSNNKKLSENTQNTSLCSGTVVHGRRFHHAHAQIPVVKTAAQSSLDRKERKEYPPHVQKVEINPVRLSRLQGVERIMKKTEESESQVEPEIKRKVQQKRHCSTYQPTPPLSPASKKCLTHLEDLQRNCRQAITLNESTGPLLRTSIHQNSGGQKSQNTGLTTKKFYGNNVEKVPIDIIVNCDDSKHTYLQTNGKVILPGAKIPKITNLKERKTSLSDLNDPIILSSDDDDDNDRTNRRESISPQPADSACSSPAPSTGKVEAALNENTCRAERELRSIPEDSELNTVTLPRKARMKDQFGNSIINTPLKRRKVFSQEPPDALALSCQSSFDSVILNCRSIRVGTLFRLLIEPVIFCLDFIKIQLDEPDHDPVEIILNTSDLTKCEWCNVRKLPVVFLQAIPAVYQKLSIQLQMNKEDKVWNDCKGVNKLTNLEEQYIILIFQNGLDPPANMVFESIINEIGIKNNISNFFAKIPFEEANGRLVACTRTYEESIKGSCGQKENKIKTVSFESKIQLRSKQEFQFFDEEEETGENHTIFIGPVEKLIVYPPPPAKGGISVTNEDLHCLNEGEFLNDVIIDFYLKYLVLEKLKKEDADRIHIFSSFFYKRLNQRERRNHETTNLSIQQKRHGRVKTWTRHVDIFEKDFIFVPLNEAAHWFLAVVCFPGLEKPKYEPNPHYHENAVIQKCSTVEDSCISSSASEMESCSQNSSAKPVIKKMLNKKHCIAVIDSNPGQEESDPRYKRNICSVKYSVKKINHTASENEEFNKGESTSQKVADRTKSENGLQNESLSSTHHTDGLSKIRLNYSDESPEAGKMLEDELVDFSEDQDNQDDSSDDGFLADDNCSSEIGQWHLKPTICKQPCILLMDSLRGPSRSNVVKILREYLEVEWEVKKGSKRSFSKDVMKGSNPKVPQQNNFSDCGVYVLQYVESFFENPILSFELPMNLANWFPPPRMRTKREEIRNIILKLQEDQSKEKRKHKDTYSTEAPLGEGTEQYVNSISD

[9] = target: T5, Sentrin-specific protease 6; assay: inhibition of human SENP6 catalytic domain – biochemical, luminescence, set 2, SAR follow-up (AID 588598); assay type: functional
[10] = target: T4, Sentrin-specific protease 7; assay: inhibition of human SENP7 cleavage activity – biochemical, luminescence, SAR follow-up (AID 504497); assay type: functional
[11] = target: T6, Rac GTPase-activating protein 1 (Homo sapiens, UniProt Q9H0H5); assay: blockers of MgcRacGAP-driven Rac1 GTP hydrolysis – biochemical, ADP Hunter fluorescence, primary and confirmatory, confirmation (AID 624330); assay type: functional
T6 sequence (Q9H0H5 whole entry): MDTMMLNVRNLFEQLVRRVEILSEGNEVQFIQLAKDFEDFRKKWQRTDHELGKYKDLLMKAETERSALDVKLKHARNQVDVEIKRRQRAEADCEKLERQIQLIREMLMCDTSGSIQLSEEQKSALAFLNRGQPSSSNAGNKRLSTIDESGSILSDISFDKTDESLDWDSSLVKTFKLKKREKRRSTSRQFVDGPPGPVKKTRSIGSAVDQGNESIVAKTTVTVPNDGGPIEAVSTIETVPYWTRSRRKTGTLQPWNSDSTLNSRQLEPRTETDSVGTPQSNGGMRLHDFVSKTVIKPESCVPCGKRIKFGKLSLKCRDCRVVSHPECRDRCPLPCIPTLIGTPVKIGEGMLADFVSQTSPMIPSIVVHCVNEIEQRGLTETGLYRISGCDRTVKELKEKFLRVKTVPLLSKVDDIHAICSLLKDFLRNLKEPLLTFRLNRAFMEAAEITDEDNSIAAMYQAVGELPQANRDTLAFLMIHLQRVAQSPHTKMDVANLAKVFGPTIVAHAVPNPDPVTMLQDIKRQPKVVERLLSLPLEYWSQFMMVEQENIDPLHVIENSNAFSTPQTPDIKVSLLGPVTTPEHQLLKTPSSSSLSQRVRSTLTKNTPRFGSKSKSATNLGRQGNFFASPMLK

[12] = target: T7, RNA-binding protein pos-1 (Caenorhabditis elegans, UniProt G5EF15); assay: disruptors of C. elegans POS-1 RNA interaction – biochemical, fluorescence polarization, dose response (AID 1964);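 also: purified POS-1 fused to maltose binding protein made in E. coli; potency of compounds blocking POS-1 binding to fluorescent RNA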
T7 sequence (G5EF15 whole entry): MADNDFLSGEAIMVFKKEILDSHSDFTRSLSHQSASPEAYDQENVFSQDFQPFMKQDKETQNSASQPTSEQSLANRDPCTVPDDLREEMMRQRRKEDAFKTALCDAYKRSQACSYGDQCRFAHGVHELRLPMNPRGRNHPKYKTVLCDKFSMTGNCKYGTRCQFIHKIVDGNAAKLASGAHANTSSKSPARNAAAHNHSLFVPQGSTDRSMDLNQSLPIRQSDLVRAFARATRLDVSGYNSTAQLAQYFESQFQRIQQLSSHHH

[13] = target: T8, Zinc finger protein mex-5 (Caenorhabditis elegans, UniProt Q9XUB2); assay: potency of MEX-5 RNA-binding blockers – biochemical, C. elegans, fluorescence polarization, dose response (AID 1960)
T8 sequence (Q9XUB2 whole entry): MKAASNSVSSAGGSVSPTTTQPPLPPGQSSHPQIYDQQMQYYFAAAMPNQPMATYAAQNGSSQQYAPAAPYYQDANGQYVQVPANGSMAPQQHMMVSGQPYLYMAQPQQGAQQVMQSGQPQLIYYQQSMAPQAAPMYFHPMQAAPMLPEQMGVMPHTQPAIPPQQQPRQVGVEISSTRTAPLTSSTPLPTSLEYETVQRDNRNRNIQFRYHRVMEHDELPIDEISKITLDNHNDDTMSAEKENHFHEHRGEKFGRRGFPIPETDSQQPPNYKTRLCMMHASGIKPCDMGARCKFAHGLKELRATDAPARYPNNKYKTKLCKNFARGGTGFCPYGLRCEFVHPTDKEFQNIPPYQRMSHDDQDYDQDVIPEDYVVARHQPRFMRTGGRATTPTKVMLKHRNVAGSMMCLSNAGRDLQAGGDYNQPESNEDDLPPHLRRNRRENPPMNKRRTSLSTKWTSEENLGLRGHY

[14] = target: Induced myeloid leukemia cell differentiation protein Mcl-1 (Homo sapiens, UniProt Q07820); assay type: functional
[15] = target: Glucose-6-phosphate 1-dehydrogenase (Homo sapiens, UniProt P11413); assay: inhibition of Homo sapiens G6PD, dose series – biochemical, fluorescence, selectivity assay for P. falciparum G6PD inhibitor project, dose response (AID 504792); assay type: functional
Chain of Glucose-6-phosphate 1-dehydrogenase (P11413 whole entry): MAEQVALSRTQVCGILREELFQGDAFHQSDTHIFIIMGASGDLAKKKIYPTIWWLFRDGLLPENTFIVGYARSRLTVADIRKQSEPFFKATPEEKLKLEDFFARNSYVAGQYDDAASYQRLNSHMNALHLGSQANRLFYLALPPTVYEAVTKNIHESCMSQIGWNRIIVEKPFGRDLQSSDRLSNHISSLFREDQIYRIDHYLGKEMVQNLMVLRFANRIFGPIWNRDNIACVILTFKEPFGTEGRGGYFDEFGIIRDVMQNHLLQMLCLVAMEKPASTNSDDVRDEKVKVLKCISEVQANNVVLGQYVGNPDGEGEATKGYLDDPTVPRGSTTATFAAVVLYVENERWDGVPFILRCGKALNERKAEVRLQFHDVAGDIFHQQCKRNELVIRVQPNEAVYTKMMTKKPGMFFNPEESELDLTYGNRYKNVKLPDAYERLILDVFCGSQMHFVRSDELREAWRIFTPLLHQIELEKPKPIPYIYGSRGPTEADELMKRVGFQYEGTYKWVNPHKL

Chain of Induced myeloid leukemia cell differentiation protein Mcl-1 (Q07820 whole entry): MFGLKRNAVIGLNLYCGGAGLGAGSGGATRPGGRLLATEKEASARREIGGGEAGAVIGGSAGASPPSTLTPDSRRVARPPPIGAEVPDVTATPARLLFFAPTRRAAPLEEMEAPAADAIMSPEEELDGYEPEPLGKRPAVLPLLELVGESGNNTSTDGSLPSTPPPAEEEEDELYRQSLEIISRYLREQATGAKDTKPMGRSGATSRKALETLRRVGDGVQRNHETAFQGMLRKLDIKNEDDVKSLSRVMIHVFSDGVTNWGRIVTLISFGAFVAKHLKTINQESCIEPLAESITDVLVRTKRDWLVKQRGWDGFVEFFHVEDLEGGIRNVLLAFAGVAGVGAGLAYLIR

## Cn1c(C(=O)NC2CC2)cc2c(=O)n(C)c3ccccc3c21
[1]
  AC50: 15.5 µM (active)

## COc1ccc(S(=O)(=O)NCc2ccco2)c2ccccc12
Escherichia coli
  AC50: 28.5 µM (active)

## Oc1ccc(-c2nc3ccccc3nc2-c2ccc(O)cc2O)c(O)c1
[1]
  AC50: 3.12 µM (active)

## COc1ccccc1-c1nnc(-c2ccc(C)cc2)o1
HEK293
  IC50: > 67.5 µM (inactive)
[2]
  IC50: > 67.5 µM (inactive)

## O=C(Nc1nc2ccccc2s1)c1ccsc1
[3]
  IC50: 1.4 µM (active)
Caspase-3 [4]
  IC50: 10.4 µM (active)
[5]
  IC50: 9.92 µM (active)
Caspase-3 [6]
  IC50: 1.1 µM (active)
[7]
  IC50: 10.3 µM (active)
[8]
  IC50: 1.4 µM (active)
[9]
  IC50: 10.6 µM (active)
[10]
  IC50: 1.1 µM (active)

## O=C(Nc1nc2ccccc2s1)c1cccc(S(=O)(=O)N2CCN(c3ccccc3)CC2)c1
Caspase-3 [4]
  IC50: > 99 µM (inactive)
[5]
  IC50: > 99 µM (inactive)
[7]
  IC50: > 99 µM (inactive)
[9]
  IC50: > 99 µM (inactive)

## Cc1ccccc1C(=O)N1CCC(C(=O)Nc2ccccc2Cl)CC1
Escherichia coli
  AC50: 27.8 µM (active)

## Cn1c(N2CCOCC2)c(/C=N/O)c2ccccc21
HEK293
  IC50: > 67.5 µM (inactive)
[2]
  IC50: > 67.5 µM (inactive)
[11]
  IC50: 74.5 µM (active)

## COc1cc(O)c(C(=O)O)c(-c2cc(O)c(O)cc2C)c1 [ALTENUSIN]
[12]
  EC50: 31 µM (active)
[13]
  EC50: > 300 µM (inconclusive)
[14]
  IC50: 4.15 µM (active)
[15]
  IC50: 31 µM (inactive)
